# Assays:
# Assay in all cases: biochemical
# Parameters in all cases: KINOMEscan competition binding panel, per cent of control
# Details in all cases: read-out: %Ctrl @ 2800nM
# ITK = ITK (Homo sapiens, UniProt Q08881)
# Outline: (§1)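 Values are expressed as percent of control, calculated as ((test − positive control)/(negative control − positive control)) × 100, so lower numbers mean stronger hits. Binding was measured by KINOMEscan competition assay in a 450-kinase human panel including disease mutants, using the contractor's validated protocol.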
# [1] = biological target: T1, ABL1(H396P)-nonphosphorylated (Homo sapiens, UniProt P00519, H396P)
# T1 construct: nonphosphorylated
# Outline: as §1
# PRKCE = PRKCE (Homo sapiens, UniProt Q02156)
# Outline: as §1
# BMPR2 = BMPR2 (Homo sapiens, UniProt Q13873)
# Outline: as §1
# MET = MET (Homo sapiens, UniProt P08581)
# Outline: as §1
# DCAMKL3 = biological target: T2, DCAMKL3 (Homo sapiens, UniProt Q9C098)
# T2 construct: gene DCLK3
# Outline: as §1
# EPHA1 = EPHA1 (Homo sapiens, UniProt P21709)
# Outline: as §1
# TAOK3 = TAOK3 (Homo sapiens, UniProt Q9H2K8)
# Outline: as §1
# ERBB2 = ERBB2 (Homo sapiens, UniProt P04626)
# Outline: as §1
# EGFR(G719S) = EGFR(G719S) (Homo sapiens, UniProt P00533, G719S)
# Outline: as §1
# PIP5K1A = PIP5K1A (Homo sapiens, UniProt Q99755)
# Outline: as §1
# LCK = LCK (Homo sapiens, UniProt P06239)
# Outline: as §1
# BIKE = biological target: T3, BIKE (Homo sapiens, UniProt Q9NSY1)
# T3 construct: gene BMP2K
# Outline: as §1
# SNRK = SNRK (Homo sapiens, UniProt Q9NRH2)
# Outline: as §1
# SNARK = biological target: T4, SNARK (Homo sapiens, UniProt Q9H093)
# T4 construct: gene NUAK2
# Outline: as §1
# NEK6 = NEK6 (Homo sapiens, UniProt Q9HC98)
# Outline: as §1
# FLT3(ITD) = FLT3(ITD) (Homo sapiens, UniProt P36888, ITD)
# Outline: as §1
# FGFR4 = FGFR4 (Homo sapiens, UniProt P22455)
# Outline: as §1
# ROS1 = ROS1 (Homo sapiens, UniProt P08922)
# Outline: as §1
# BRSK2 = BRSK2 (Homo sapiens, UniProt Q8IWQ3)
# Outline: as §1
# CAMKK2 = CAMKK2 (Homo sapiens, UniProt Q96RR4)
# Outline: as §1
# PIK3CA(I800L) = PIK3CA(I800L) (Homo sapiens, UniProt P42336, I800L)
# Outline: as §1
# PCTK3 = biological target: T5, PCTK3 (Homo sapiens, UniProt Q07002)
# T5 construct: gene CDK18
# Outline: as §1
# CSNK1G3 = CSNK1G3 (Homo sapiens, UniProt Q9Y6M4)
# Outline: as §1
# MST3 = biological target: T6, MST3 (Homo sapiens, UniProt Q9Y6E0)
# T6 construct: gene STK24
# Outline: as §1
# ERK8 = biological target: T7, ERK8 (Homo sapiens, UniProt Q8TD08)
# T7 construct: gene MAPK15
# Outline: as §1
# PIK3CA(I800L), sequence (P42336 whole entry I800L): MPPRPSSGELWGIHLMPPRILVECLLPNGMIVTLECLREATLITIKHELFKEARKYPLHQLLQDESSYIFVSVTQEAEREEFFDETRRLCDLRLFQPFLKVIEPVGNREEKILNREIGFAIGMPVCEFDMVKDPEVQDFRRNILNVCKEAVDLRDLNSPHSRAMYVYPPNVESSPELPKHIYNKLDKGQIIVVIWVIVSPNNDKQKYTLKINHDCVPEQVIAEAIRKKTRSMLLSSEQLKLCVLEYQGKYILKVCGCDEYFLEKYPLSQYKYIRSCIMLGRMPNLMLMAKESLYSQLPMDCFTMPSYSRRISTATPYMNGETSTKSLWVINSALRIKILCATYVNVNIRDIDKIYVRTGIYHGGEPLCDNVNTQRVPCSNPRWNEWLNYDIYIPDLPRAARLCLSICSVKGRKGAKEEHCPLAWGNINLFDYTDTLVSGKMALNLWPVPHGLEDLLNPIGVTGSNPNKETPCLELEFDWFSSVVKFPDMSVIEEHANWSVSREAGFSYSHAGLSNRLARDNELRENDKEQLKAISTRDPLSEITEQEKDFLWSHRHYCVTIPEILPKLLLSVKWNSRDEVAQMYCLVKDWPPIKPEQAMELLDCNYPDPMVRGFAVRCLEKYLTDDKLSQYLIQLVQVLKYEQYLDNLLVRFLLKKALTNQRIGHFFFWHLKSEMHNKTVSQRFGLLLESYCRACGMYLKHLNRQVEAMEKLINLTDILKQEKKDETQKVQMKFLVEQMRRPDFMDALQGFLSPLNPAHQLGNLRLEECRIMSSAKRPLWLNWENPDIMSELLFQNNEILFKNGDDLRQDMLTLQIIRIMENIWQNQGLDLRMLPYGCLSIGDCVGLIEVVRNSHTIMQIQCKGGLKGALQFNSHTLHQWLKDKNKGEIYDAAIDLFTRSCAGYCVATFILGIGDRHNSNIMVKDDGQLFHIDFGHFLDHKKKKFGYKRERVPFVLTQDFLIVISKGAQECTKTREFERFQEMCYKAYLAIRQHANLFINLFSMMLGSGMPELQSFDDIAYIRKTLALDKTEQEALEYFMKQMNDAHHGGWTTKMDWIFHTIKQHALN
# BMPR2, sequence (Q13873 whole entry): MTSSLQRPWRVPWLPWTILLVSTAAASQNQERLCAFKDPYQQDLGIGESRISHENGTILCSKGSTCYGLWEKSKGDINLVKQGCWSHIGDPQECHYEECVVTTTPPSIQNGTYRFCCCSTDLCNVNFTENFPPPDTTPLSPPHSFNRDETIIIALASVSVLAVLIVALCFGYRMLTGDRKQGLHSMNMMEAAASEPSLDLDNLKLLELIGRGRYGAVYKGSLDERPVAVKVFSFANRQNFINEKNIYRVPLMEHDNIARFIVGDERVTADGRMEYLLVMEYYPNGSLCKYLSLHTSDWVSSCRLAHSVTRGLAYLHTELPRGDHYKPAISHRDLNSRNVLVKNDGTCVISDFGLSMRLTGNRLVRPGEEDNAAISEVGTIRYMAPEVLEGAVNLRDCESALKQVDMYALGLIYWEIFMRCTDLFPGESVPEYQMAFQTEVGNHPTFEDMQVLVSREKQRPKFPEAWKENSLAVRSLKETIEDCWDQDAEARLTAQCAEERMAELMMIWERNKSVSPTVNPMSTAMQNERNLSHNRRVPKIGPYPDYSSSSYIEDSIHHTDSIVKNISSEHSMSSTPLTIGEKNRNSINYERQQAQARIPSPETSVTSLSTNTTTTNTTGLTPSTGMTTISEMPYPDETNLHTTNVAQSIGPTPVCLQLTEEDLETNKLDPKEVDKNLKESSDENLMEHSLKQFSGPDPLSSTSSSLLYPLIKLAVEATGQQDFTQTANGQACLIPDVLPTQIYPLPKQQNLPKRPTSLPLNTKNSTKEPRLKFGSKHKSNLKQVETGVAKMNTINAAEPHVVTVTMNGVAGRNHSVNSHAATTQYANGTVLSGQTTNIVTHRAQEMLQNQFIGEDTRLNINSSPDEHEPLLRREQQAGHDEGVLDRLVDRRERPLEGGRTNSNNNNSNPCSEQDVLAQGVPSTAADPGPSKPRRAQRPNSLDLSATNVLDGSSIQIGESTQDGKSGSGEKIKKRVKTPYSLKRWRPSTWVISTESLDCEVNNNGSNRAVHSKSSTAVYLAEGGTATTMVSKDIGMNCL
# CAMKK2, sequence (Q96RR4 whole entry): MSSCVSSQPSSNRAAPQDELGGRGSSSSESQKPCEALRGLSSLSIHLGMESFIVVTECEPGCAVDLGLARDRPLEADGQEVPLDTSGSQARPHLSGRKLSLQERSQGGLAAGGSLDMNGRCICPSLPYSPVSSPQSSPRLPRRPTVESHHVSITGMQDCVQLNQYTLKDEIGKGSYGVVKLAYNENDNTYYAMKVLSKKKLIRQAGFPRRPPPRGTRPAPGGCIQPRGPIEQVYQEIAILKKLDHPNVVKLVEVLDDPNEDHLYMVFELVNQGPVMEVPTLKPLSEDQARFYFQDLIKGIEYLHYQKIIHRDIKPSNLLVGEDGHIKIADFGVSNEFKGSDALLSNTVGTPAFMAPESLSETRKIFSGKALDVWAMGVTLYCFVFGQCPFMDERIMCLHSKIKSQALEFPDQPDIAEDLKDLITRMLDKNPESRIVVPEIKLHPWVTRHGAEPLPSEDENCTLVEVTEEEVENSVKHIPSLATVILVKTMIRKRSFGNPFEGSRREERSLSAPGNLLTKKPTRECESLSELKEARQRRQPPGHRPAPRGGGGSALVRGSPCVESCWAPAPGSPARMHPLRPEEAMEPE
# NEK6, sequence (Q9HC98 whole entry): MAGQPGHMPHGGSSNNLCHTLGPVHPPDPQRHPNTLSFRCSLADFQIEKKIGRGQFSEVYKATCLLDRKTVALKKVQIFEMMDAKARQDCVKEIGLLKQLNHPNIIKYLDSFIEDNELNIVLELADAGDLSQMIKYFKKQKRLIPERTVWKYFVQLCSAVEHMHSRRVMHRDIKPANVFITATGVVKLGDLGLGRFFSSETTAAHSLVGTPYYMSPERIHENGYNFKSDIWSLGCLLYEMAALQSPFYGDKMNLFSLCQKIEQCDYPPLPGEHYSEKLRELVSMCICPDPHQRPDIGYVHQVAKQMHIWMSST
# CSNK1G3, sequence (Q9Y6M4 whole entry): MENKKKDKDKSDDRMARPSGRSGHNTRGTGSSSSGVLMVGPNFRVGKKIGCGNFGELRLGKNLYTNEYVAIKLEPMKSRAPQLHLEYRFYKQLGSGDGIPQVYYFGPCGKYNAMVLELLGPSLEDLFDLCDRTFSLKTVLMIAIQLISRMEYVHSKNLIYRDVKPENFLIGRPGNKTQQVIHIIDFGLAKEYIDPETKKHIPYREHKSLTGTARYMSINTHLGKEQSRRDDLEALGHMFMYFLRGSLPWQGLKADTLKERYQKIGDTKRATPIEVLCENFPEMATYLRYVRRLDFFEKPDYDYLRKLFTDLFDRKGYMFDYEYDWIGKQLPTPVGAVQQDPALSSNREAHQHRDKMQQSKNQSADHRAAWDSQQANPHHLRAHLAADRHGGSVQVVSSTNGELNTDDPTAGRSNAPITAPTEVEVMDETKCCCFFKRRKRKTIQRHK
# FGFR4, sequence (P22455 whole entry): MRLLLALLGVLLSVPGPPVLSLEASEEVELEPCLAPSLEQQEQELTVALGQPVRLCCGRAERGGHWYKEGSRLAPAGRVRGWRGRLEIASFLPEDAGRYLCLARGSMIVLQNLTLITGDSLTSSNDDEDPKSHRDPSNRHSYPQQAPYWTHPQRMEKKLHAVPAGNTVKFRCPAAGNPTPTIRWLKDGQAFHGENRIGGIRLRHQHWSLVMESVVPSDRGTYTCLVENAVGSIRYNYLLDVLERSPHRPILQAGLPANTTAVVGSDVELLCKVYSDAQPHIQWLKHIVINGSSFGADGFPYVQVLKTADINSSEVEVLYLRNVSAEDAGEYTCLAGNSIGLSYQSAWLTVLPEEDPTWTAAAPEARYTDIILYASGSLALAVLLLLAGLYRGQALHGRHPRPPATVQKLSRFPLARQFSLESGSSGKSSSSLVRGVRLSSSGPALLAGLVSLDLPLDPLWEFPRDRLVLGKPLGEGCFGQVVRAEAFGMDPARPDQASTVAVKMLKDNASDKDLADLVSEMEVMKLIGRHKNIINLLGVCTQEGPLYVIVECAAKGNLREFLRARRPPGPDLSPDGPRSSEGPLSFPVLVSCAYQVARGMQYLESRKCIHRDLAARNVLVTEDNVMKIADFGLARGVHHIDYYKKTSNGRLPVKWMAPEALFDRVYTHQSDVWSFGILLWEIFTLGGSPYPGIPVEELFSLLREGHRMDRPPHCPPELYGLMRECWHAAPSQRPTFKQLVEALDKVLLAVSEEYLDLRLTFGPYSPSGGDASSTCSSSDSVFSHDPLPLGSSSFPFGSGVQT
# LCK, sequence (P06239 whole entry): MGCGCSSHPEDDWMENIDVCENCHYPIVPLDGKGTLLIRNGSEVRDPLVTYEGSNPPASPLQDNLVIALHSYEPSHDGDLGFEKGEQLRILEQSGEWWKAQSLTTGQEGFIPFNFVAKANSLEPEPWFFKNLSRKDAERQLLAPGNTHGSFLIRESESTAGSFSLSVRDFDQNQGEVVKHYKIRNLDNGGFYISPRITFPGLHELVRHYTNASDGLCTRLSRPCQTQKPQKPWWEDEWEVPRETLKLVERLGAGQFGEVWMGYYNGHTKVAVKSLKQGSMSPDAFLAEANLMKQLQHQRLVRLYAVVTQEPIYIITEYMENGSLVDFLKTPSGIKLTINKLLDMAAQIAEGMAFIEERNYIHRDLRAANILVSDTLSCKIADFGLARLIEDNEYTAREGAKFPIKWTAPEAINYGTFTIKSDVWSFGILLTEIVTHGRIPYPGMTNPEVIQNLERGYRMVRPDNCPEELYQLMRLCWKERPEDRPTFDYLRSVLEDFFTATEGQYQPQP
smiles,measurement,setting,value
"[O-][S@@+](Cc1cncs1)C(c1ccccc1)c1ccccc1 [S-CE-123, (S)-5-((Benzhydrylsulfinyl)Methyl)Thiazole]",remaining binding at 2.8 µM,ITK,100%
same,remaining binding at 2.8 µM,[1],86%
same,remaining binding at 2.8 µM,PRKCE,100%
same,remaining binding at 2.8 µM,BMPR2,100%
same,remaining binding at 2.8 µM,MET,99%
same,remaining binding at 2.8 µM,DCAMKL3,96%
same,remaining binding at 2.8 µM,EPHA1,96%
same,remaining binding at 2.8 µM,TAOK3,91%
same,remaining binding at 2.8 µM,ERBB2,100%
same,remaining binding at 2.8 µM,EGFR(G719S),77%
same,remaining binding at 2.8 µM,PIP5K1A,95%
same,remaining binding at 2.8 µM,LCK,100%
same,remaining binding at 2.8 µM,BIKE,97%
same,remaining binding at 2.8 µM,SNRK,98%
same,remaining binding at 2.8 µM,SNARK,100%
same,remaining binding at 2.8 µM,NEK6,100%
same,remaining binding at 2.8 µM,FLT3(ITD),100%
same,remaining binding at 2.8 µM,FGFR4,100%
same,remaining binding at 2.8 µM,ROS1,91%
same,remaining binding at 2.8 µM,BRSK2,100%
same,remaining binding at 2.8 µM,CAMKK2,94%
same,remaining binding at 2.8 µM,PIK3CA(I800L),84%
same,remaining binding at 2.8 µM,PCTK3,99%
same,remaining binding at 2.8 µM,CSNK1G3,98%
same,remaining binding at 2.8 µM,MST3,87%
same,remaining binding at 2.8 µM,ERK8,100%
